In experiment [1] the target is T1, D-histidine 2-aminobutanoyltransferase (Staphylococcus aureus (strain Mu50 / ATCC 700699)) (UniProt A0A0H3JXA8).
T1 sequence (whole entry): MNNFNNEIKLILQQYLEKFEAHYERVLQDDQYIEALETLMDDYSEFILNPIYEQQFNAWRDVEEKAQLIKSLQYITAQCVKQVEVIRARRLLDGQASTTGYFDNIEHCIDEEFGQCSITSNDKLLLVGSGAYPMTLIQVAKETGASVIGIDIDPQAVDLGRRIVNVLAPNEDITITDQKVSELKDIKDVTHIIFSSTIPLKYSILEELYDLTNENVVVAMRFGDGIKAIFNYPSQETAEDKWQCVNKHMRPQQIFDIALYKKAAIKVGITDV
Briefly: Induction of thermal stabilization of Staphylococcus aureus ATCC 700699 CntL assessed as change in melting temperature at 100 uM by fluorescence-based thermal shift assay.

Experiment [2] addresses T1, D-histidine 2-aminobutanoyltransferase (Staphylococcus aureus (strain Mu50 / ATCC 700699)). Briefly: Inhibition of N-terminal his6-tagged Staphylococcus aureus ATCC 700699 CntL at 5 uM using SAM as substrate preincubated with compound for 10 mins followed by substrate addition and measured after 25 mins in presence of NADPH by microplate reader analysis relative to control. The note with it: time 35.0 min.

The target in experiment [3] is T2, L-histidine 2-aminobutanoyltransferase (Pseudomonas aeruginosa, UniProt Q9HUX4).
T2 sequence (Q9HUX4 whole entry): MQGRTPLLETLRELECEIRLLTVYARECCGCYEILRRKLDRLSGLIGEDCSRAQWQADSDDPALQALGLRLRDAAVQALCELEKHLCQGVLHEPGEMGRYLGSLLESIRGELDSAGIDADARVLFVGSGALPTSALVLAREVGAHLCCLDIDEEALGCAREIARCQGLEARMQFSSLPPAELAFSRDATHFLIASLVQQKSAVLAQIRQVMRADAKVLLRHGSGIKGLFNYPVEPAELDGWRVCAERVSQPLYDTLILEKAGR
Briefly: Binding affinity to N-terminal his6-tagged Pseudomonas aeruginosa CntL assessed as dissociation constant by ITC analysis. Background: ITC needs no label: the signal is the heat of the interaction.

The target in experiment [4] is T3, L-histidine 2-aminobutanoyltransferase (Pseudomonas aeruginosa) (UniProt Q9HUX4).
T3 sequence (whole entry): T2 sequence (Q9HUX4 whole entry)
Briefly: Binding affinity to N-terminal his6-tagged Pseudomonas aeruginosa CntL assessed as change in gibbs free energy by ITC analysis.

Experiment [5] concerns the target T3, L-histidine 2-aminobutanoyltransferase (Pseudomonas aeruginosa). Briefly: Induction of thermal stabilization of N-terminal his6-tagged Pseudomonas aeruginosa CntL assessed as increase in melting temperature at 500 uM by fluorescence-based thermal shift assay.
For experiment [6], the target named is T1, D-histidine 2-aminobutanoyltransferase (Staphylococcus aureus (strain Mu50 / ATCC 700699)). The experiment can be described thus: Binding affinity to N-terminal his6-tagged Staphylococcus aureus ATCC 700699 CntL assessed as change in enthalpy by ITC analysis.
The target in experiment [7] is T3, L-histidine 2-aminobutanoyltransferase (Pseudomonas aeruginosa). Briefly: Binding affinity to N-terminal his6-tagged Pseudomonas aeruginosa CntL assessed as change in entropy by ITC analysis.
Experiment [8] deals with T1, D-histidine 2-aminobutanoyltransferase (Staphylococcus aureus (strain Mu50 / ATCC 700699)). Briefly: Binding affinity to N-terminal his6-tagged Staphylococcus aureus ATCC 700699 CntL assessed as change in entropy by ITC analysis.
Experiment [9] concerns the target T3, L-histidine 2-aminobutanoyltransferase (Pseudomonas aeruginosa). The experiment can be described thus: Binding affinity to N-terminal his6-tagged Pseudomonas aeruginosa CntL assessed as change in enthalpy by ITC analysis.
Experiment [10] has as its target T4, D-histidine 2-aminobutanoyltransferase (Staphylococcus aureus (strain Mu50 / ATCC 700699), UniProt A0A0H3JXA8).
T4 sequence (A0A0H3JXA8 whole entry): T1 sequence (whole entry)
Briefly: Binding affinity to N-terminal his6-tagged Staphylococcus aureus ATCC 700699 CntL assessed as dissociation constant by ITC analysis.

Experiment [11] concerns the target T1, D-histidine 2-aminobutanoyltransferase (Staphylococcus aureus (strain Mu50 / ATCC 700699)). Briefly: Binding affinity to N-terminal his6-tagged Staphylococcus aureus ATCC 700699 CntL assessed as gibbs free energy change by ITC analysis.
Experiment [12] shares this target. Briefly: Induction of thermal stabilization of Staphylococcus aureus ATCC 700699 CntL assessed as change in melting temperature by fluorescence-based thermal shift assay.
The target in experiment [13] is T4, D-histidine 2-aminobutanoyltransferase. The experiment can be described thus: Inhibition of N-terminal his6-tagged Staphylococcus aureus ATCC 700699 CntL using SAM as substrate preincubated with compound for 10 mins followed by substrate addition and measured after 25 mins in presence of NADPH by microplate reader analysis.
Experiment [14] concerns the target T1, D-histidine 2-aminobutanoyltransferase (Staphylococcus aureus (strain Mu50 / ATCC 700699)). Briefly: Induction of thermal stabilization of Staphylococcus aureus ATCC 700699 CntL assessed as melting temperature in presence of L-His by fluorescence-based thermal shift assay.
The target is the same in experiment [15]. The experiment can be described thus: Induction of thermal stabilization of Staphylococcus aureus ATCC 700699 CntL assessed as change in melting temperature in presence of histidine by fluorescence-based thermal shift assay.
For experiment [16] the target is unchanged. Briefly: Induction of thermal stabilization of Staphylococcus aureus ATCC 700699 CntL assessed as melting temperature by fluorescence-based thermal shift assay.
Experiment [17] shares this target. The experiment can be described thus: Induction of thermal stabilization of Staphylococcus aureus ATCC 700699 CntL assessed as melting temperature in presence of D-His by fluorescence-based thermal shift assay.
Experiment [18] has the same target. Briefly: Induction of thermal stabilization of Staphylococcus aureus ATCC 700699 CntL assessed as melting temperature in presence of xNA by fluorescence-based thermal shift assay.
The target is the same in experiment [19]. The experiment can be described thus: Inhibition of N-terminal his6-tagged Staphylococcus aureus ATCC 700699 CntL assessed as reduction in intracellular nickel ion level at 100 uM by ICP-MS analysis. It is filed as cell-based.
Experiment [20] shares this target. The experiment can be described thus: Inhibition of N-terminal his6-tagged Staphylococcus aureus ATCC 700699 CntL assessed as reduction in intracellular iron level at 100 uM by ICP-MS analysis. In kind it is cell-based.
The subject of experiment [21] is Staphylococcus aureus. Briefly: Antibacterial activity against Staphylococcus aureus […] assessed as effect on bacterial growth at 100 uM incubated for 12 hrs in presence of LB medium. In kind it is functional, organism-based.
Experiment [22] deals with Staphylococcus aureus. The experiment can be described thus: Antibacterial activity against Staphylococcus aureus […] assessed as effect on bacterial growth at 100 uM incubated for 12 hrs in presence of chemically defined medium. In kind it is functional, organism-based.
Experiment [23] has as its target T1, D-histidine 2-aminobutanoyltransferase (Staphylococcus aureus (strain Mu50 / ATCC 700699)). Briefly: Inhibition of N-terminal his6-tagged Staphylococcus aureus ATCC 700699 CntL assessed as reduction in intracellular cobalt ion level at 100 uM by ICP-MS analysis. In kind it is cell-based.
Experiment [24] relates to Staphylococcus aureus. Briefly: Antibacterial activity against Staphylococcus aureus […] assessed as effect on bacterial growth at 100 uM incubated for 12 hrs in presence of dCDM medium. In kind it is functional, organism-based.

pIC50, pKd: −log10 of the molar value. Active and inactive are the calls of the source. The calls are words filed in the database; no cut-off is given here. Where only a bound is given, the exact number is not on record here.

Take `Nc1ncnc2c1ncn2[C@@H]1O[C@H](CSCCCNC(=O)[C@H](N)Cc2c[nH]cn2)[C@@H](O)[C@H]1O`: in experiment [1], the ΔTm turned out to be 0.7 °C. In addition, the inhibition in [2] is below 20%.

For `Nc1ncnc2c1ncn2[C@@H]1O[C@H](CSCCN[C@@H](Cc2c[nH]cn2)C(=O)O)[C@@H](O)[C@H]1O`, the pKd in experiment [3] is 6.66; in [10], 7.39. The ΔTm worked out at 8.4 °C in [1] and 1 °C in experiment [12]. For the same compound, the results for the deltaG in experiment [4] and in experiment [11] were -9.1 kcal/mol and -10.1 kcal/mol, respectively. The result in experiment [5] was Active. The deltaH in [6] is -17.8 kcal/mol; in experiment [9], -4.25 kcal/mol. Moreover, the -TdeltaS in [7] is -4.84 kcal/mol; in experiment [8], 7.72 kcal/mol. Further, the inhibition in experiment [2] was 92%. In addition, the pIC50 in experiment [13] was 7.22.

Consider `Nc1ncnc2c1ncn2[C@@H]1O[C@H](CSCCC(=O)N[C@@H](Cc2c[nH]cn2)C(=O)O)[C@@H](O)[C@H]1O`, for which the ΔTm in experiment [1] was determined as 1.7 °C. For the same compound, in [2], the inhibition was below 20%.

On to `Nc1nc(Cl)nc2c1ncn2[C@@H]1O[C@H](CSCCCNC(Cc2c[nH]cn2)C(=O)O)[C@@H](O)[C@H]1O` (single isomer, unassigned), for which the result in [5] was Active. The ΔTm in experiment [12] worked out at 8.4 °C.

For `Nc1ncnc2c1ncn2[C@@H]1O[C@H](CSCCCN[C@@H](Cc2c[nH]cn2)C(=O)O)[C@@H](O)[C@H]1O`, the pKd in [3] was 6.22; in [10], 6.74. Besides, the figures for the ΔTm in experiment [1] and in [12] were 7.7 °C and 0.7 °C, respectively. Besides, the deltaG was -8.48 kcal/mol in experiment [4] and -9.2 kcal/mol in [11]. Further, the outcome in experiment [5] was Active. Also, the deltaH in experiment [6] is -18.3 kcal/mol; in experiment [9] it was -8.65 kcal/mol. Also, the -TdeltaS came to 0.149 kcal/mol in experiment [7] and 9.07 kcal/mol in [8]. In addition, the inhibition in experiment [2] is 96%. Also, the pIC50 in experiment [13] was 6.92.

Take `CSC[C@H]1O[C@@H](n2cnc3c(N)ncnc32)[C@H](O)[C@@H]1O` [METHYLTHIOADENOSINE]: the pKd in experiment [3] is 4.81; in experiment [10], 4.96. The deltaG is -6.55 kcal/mol in experiment [4] and -6.84 kcal/mol in [11]. Also, the Tm in experiment [14] came to 59 °C; in [16], 56.3 °C; in experiment [17] it was 59 °C; in experiment [18] it was 59.3 °C. The ΔTm in [15] was determined as 3.4 °C. In addition, the deltaH in experiment [6] was -23.3 kcal/mol; in experiment [9], -6.63 kcal/mol. For the same compound, the -TdeltaS in [7] is 0.078 kcal/mol; in experiment [8], 16.4 kcal/mol.

For the compound `Nc1nc(Cl)nc2c1ncn2[C@@H]1O[C@H](CSCCN[C@@H](Cc2c[nH]cn2)C(=O)O)[C@@H](O)[C@H]1O`, the inhibition entry in experiment [19], in experiment [20] and in experiment [23] was “Active” throughout. In experiment [5], the result was Active. The deltaH in experiment [6] is -10.9 kcal/mol. The outcome in experiment [21], in experiment [22] and in experiment [24] was inactive. Moreover, the -TdeltaS in experiment [8] turned out to be 0.448 kcal/mol. In addition, the pKd in [10] was 7.68. For the same compound, in [11], the deltaG is -10.5 kcal/mol. Further, the ΔTm in experiment [12] amounted to 9.4 °C. Also, in experiment [13], the pIC50 is around 7.22.

Consider `COc1nc(N)c2ncn([C@@H]3O[C@H](CSCCCN[C@@H](Cc4c[nH]cn4)C(=O)O)[C@@H](O)[C@H]3O)c2n1`, for which the ΔTm in [12] came out at 4.7 °C.

The ΔTm is the shift of the melting midpoint relative to a reference. The inhibition is the percentage by which the read-out fell short of the control. By pKd is commonly meant the negative decadic logarithm of the Kd, by convention in mol/L. A word on the pIC50: it is −log10 of the IC50, conventionally taken in molar units. The term Tm denotes the temperature at which the thermal transition is half complete.

These data come from ChEMBL document CHEMBL6092200, “Structure-guided inhibitor design targeting CntL provides the first chemical validation of the staphylopine metallophore system in bacterial metal acquisition” (Eur J Med Chem, 2024).
